Measurements reported in patent US6613772B1, “Substituted 2-aryl-4-amino-chinazolines, method for the production and use thereof as medicaments” (Aventis Pharma Deutschland GmbH, priority 1997, dated 2003).

Key:
[1] = biological target: T1, soluble guanylate cyclase (sGC) (Bos taurus, UniProt P16068+P19687); assay: Activation of the soluble guanylate cyclase (cGMP enzyme immunoassay); type: biochemical; conditions: test substance 50 μM; sGC isolated from bovine lung; [cGMP] test substance/[cGMP] control (basal activity, solvent); 37° C., 15 to 20 minutes
T1 construct: The sGC employed had been isolated from bovine lung; from tissue; host or cells: bovine lung
T1 sequence (P19687 1-691): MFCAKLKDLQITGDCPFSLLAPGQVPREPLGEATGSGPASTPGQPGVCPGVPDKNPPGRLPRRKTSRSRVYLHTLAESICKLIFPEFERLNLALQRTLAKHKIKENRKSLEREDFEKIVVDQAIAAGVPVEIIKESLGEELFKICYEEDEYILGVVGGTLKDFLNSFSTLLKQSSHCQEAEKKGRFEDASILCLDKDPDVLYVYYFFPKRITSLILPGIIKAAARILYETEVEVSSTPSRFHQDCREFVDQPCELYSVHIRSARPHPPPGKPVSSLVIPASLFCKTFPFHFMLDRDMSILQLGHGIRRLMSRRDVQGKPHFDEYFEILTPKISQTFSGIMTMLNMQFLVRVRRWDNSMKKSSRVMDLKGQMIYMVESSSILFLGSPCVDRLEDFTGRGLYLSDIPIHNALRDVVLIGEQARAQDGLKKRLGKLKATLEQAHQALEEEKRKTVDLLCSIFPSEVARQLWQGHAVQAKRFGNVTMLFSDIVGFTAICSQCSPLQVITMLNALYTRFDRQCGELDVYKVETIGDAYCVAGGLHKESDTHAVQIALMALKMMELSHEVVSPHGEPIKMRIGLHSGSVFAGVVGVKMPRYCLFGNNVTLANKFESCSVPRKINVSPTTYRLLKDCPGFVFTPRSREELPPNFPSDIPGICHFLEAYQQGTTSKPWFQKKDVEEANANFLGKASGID
T1 sequence (P16068 1-619): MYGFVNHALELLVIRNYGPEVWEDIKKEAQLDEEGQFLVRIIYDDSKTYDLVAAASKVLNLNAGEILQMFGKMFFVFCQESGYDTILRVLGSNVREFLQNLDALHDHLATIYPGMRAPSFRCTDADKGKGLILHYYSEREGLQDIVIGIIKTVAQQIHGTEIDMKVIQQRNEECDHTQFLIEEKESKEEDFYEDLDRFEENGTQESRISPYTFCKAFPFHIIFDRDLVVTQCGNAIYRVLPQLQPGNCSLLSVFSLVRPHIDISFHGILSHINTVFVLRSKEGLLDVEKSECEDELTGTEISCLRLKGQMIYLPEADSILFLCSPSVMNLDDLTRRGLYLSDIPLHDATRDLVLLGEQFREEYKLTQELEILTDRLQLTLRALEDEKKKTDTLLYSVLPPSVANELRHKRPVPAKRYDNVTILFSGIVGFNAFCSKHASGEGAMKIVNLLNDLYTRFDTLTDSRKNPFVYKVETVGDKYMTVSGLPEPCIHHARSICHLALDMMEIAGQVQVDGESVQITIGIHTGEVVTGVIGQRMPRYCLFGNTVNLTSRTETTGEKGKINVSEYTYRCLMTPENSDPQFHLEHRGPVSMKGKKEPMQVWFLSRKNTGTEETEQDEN
Description: Activation of the Soluble Guanylate Cyclase
The activation of the soluble guanylate cyclase (sGC), which catalyzes the conversion of guanosine triphosphate (GTP) into cyclic guanosine monophosphate (cGMP) and pyrophosphate, by the compounds according to the invention was quantified with the aid of an enzyme immunoassay (EIA) from Amersham. For this, the test substances were first incubated with sGC in microtiter plates and then the amount of resulting cGMP was determined. The sGC employed had been isolated from bovine lung (see Methods in Enzymology, Volume 195, p. 377). The test solutions (100 μl per well) contained 50 mM triethanolamine (TEA) buffer (pH 7.5), 3 mM MgCl2, 3 mM reduced glutathione (GSH), 0.1 mM GTP, 1 mM 3-isobutyl-1-methylxanthine (IBMX), suitably diluted enzyme solution and the test substance or, in the case of the control experiments, solvent. The test substances were dissolved in dimethyl sulfoxide (DMSO) and the solution was diluted with DMSO/water such that the final concentration of test substance in the test solution was 50 μM. The DMSO concentration in the test solution was 5% (v/v). The reaction was started by addition of the sGC. The reaction mix was incubated at 37° C. for 15 to 20 minutes and then stopped by ice-cooling and addition of the stop reagent (50 mM EDTA, pH 8.0). An aliquot of 50 μl was taken and employed for the determination of the cGMP content using the acetylation protocol of the Amersham cGMP EIA kit. The absorption of the samples was measured at 450 nm (reference wavelength 620 nm) in a microtiter plate reader. The cGMP concentration was determined by means of a calibration curve which was obtained under the same experimental conditions. The activation of the sGC by a test substance is indicated as n-fold stimulation of the basal enzyme activity which was found in the control experiments (with solvent instead of test substance calculated according to the formula
n-fold stimulation=[cGMP]test substance/[cGMP]control).

Structure (SMILES)	n-fold Stimulation [1]	melting point
COc1cc2nc(-c3ccc(Cl)cc3)nc(N(C)C)c2cc1OC [Example 35, 2-(4-Chlorophenyl)-4-dimethylamino-6,7-dimethoxyquinazoline]	5 n-fold	148 °C
COc1cc2nc(-c3ccc(C)cc3)nc(N3CCN(c4ccccn4)CC3)c2cc1OC [Example 79, 2-(4-Methylphenyl)-4-(4-(2-pyridyl)piperazino)-6,7-dimethoxyquinazoline]	6 n-fold	191 °C
COc1cc2nc(-c3ccc(Cl)cc3)nc(NC3CCCC3)c2cc1OC [Example 92, 2-(4-Chlorophenyl)-4-cyclopentylamino-6,7-dimethoxyquinazoline]	6 n-fold	231 °C
COc1cc2nc(-c3ccc(C(F)(F)F)cc3)nc(NCc3cccnc3)c2cc1OC [Example 44, 2-(4-Trifluoromethylphenyl)-4-((3-pyridylmethyl)amino)-6,7-dimethoxyquinazoline]	4 n-fold	238 °C
COc1cc2nc(-c3ccc(Cl)cc3)nc(NCCOCCO)c2cc1OC [Example 33, 2-(4-Chlorophenyl)-4-(2-(2-hydroxyethoxy)ethylamino)-6,7-dimethoxyquinazoline]	3 n-fold	188 °C
COc1cc2nc(-c3ccc(C(F)(F)F)cc3)nc(NCCO)c2cc1OC [Example 42, 2-(4-Trifluoromethylphenyl)-4-(2-hydroxyethylamino)-6,7-dimethoxyquinazoline]	3 n-fold	210 °C
COc1cc2c(NCCCN3CCOCC3)nc(-c3ccc(Cl)cc3)nc2c(OC)c1OC.Cl [Example 14, 2-(4-Chlorophenyl)-4-(3-morpholinopropylamino)-6,7,8-trimethoxyquinazoline Hydrochloride]	3 n-fold	190 °C
COc1cc2nc(-c3ccc(C)cc3)nc(N[C@H]3CC[C@H](O)CC3)c2cc1OC [Example 96, 2-(4-Methylphenyl)-4-(trans-4-hydroxycyclohexylamino)-6,7-dimethoxyquinazoline]	16 n-fold	243 °C
COc1cc2nc(-c3ccc(C)cc3)nc(N3CCN(C)CC3)c2cc1OC [Example 39, 2-(4-Methylphenyl)-4-(4-methylpiperazino)-6,7-dimethoxyquinazoline]	3 n-fold	166 °C
COc1cc2nc(-c3ccc(C)cc3)nc(NC3CCCC3)c2cc1OC [Example 98, 2-(4-Methylphenyl)-4-cyclopentylamino-6,7-dimethoxyquinazoline]	8 n-fold	101 °C
COc1cc2c(N[C@H]3CC[C@H](O)CC3)nc(-c3ccc(Cl)cc3)nc2c(OC)c1OC [Example 94, 2-(4-Chlorophenyl)-4-(trans-4-hydroxycyclohexylamino)-6,7,8-trimethoxyquinazoline]	13 n-fold	199 °C
COc1cc2nc(-c3ccc(Cl)cc3)nc(N[C@H]3CC[C@H](O)CC3)c2cc1OC [Example 93, 2-(4-Chlorophenyl)-4-(trans-4-hydroxycyclohexylamino)-6,7-dimethoxyquinazoline]	14 n-fold	261 °C
COc1cc2c(N3CCN(Cc4ccccc4)CC3)nc(-c3ccc(Cl)cc3)nc2c(OC)c1OC [Example 09, 2-(4-Chlorophenyl)-4-(4-benzylpiperazino)-6,7,8-trimethoxyquinazoline]	4 n-fold	–
COc1cc2nc(-c3ccc(C)cc3)nc(NCc3cccnc3)c2cc1OC [Example 38, 2-(4-Methylphenyl)-4-((3-pyridylmethyl)amino)-6,7-dimethoxyquinazoline]	7 n-fold	239 °C
COc1cc2nc(-c3ccc(Cl)cc3)nc(N3CCN(CC(=O)NC(C)C)CC3)c2cc1OC [Example 24, 2-(4-Chlorophenyl)-4-(4-(isopropylaminocarbonylmethyl)piperazino)-6,7-dimethoxyquinazoline]	3 n-fold	187 °C
COc1cc2c(N3CCC(O)CC3)nc(-c3ccc(Cl)cc3)nc2c(OC)c1OC [Example 95, 2-(4-Chlorophenyl)-4-(4-hydroxypiperidino)-6,7,8-tdmethoxyquinazoline]	7 n-fold	–
COc1cc2nc(-c3ccc(Cl)cc3)nc(N3CCC(C(N)=O)CC3)c2cc1OC [Example 88, 2-(4-Chlorophenyl)-4-(4-aminocarbonylpiperidino)-6,7-dimethoxyquinazoline]	–	225 °C
COc1cc2c(NCCCn3ccnc3)nc(-c3ccc(Cl)cc3)nc2c(OC)c1OC [Example 59, 2-(4-Chlorophenyl)-4-(3-(1-imidazolyl)propylamino)-6,7,8-trimethoxyquinazoline]	–	245 °C
COc1cc2nc(-c3ccc(Cl)cc3)nc(N3CC[S+]([O-])CC3)c2cc1OC [Example 76, 2-(4-Chlorophenyl)-4-(1-oxothiomorpholino)-6,7-dimethoxyquinazoline]	–	226 °C
CCCN(CCC)c1nc(-c2cc(C(F)(F)F)cc(C(F)(F)F)c2)nc2c(OC)c(OC)c(OC)cc12 [Example 82, 2-(3,5-Bistrifluoromethylphenyl)-4-dipropylamino-6,7,8-trimethoxyquinazoline]	–	121 °C
CCCN(CCC)c1nc(-c2ccc(Cl)cc2)nc2cc(OC)c(OC)cc12 [Example 81, 2-(4-Chlorophenyl)-4-dipropylamino-6,7-dimethoxyquinazoline]	–	223 °C
COc1cc2c(NCc3cccnc3)nc(-c3cc(C(F)(F)F)cc(C(F)(F)F)c3)nc2c(OC)c1OC [Example 65, 2-(3,5-Bistrifluoromethylphenyl)-4-((3-pyridylmethyl)amino)-6,7,8-trimethoxyquinazoline]	–	229 °C
COc1cc2nc(-c3ccc(Cl)cc3)nc(N3CCN(Cc4ccccc4)CC3)c2cc1OC.Cl.Cl	–	225 °C
COCCNc1nc(-c2ccc(Cl)cc2)nc2c(OC)c(OC)c(OC)cc12 [Example 58, 2-(4-Chlorophenyl)-4-(2-methoxyethylamino)-6,7,8-trimethoxyquinazoline]	–	165 °C
COc1cc2nc(-c3ccc(Cl)cc3)nc(NCC(=O)O)c2cc1OC [Example 34, N-(2-(4-Chlorophenyl)-6,7-dimethoxyquinazolin-4-yl)aminoacetic Acid]	–	270 °C (dec.)
COc1cccc(CNc2nc(-c3ccc(C)cc3)nc3cc(OC)c(OC)cc23)c1.Cl	–	278 °C
COc1cc2nc(-c3ccc(C)cc3)nc(NCc3ccccn3)c2cc1OC [Example 52, 2-(4-Methylphenyl)-4-((2-pyridylmethyl)amino)-6,7-dimethoxyquinazoline]	–	196 °C
